# Where two headings read alike, the source gives them in different places.
# Assays:
# CYP2C-1 = assay: Reversible inhibition kinetics (Lineweaver-Burk), CYP2C-1 in RLMs; type: in vitro ADME, rat
# Protocol: (§1) The components of the incubation system were as follows: 0.20 mg/mL HLMs or 0.20 mg/mL RLMs, 0.1 M Tris-HCl, vortioxetine, and the probe substrates of each enzyme. In the study of Km’s (Michaelis–Menten constant) experiment, midazolam (1, 2, 5, 10, 20, 50 and 100 μM in HLMs and RLMs) corresponded to CYP3A4/3A; bupropion (10, 20, 50, 100, 200, 500, 1,000 and 2000 μM in HLMs; 1, 2, 5, 10, 20, 50, 100 and 200 μM in RLMs) corresponded to CYP2B6/2B; amodiaquine (5, 10, 20, 50, 100 and 200 μM in HLMs; 10, 20, 50, 100, 200, 500 μM in RLMs) corresponded to CYP2C8/CYP2C-1; losartan (1, 2, 5, 10, 20, 50, 100, 200 μM in HLMs; 10, 20, 50, 100, 200, 500 and 1,000 μM in RLMs) corresponded to CYP2C9/CYP2C-2; mephenytoin (20, 50, 100, 200, 500 and 1,000 μM in HLMs; 5, 10, 20, 50, 100, 200, 500 and 1,000 μM in RLMs) corresponded to CYP2C19/CYP2C-3; and dextromethorphan (1, 2, 5, 10, 20, 50 and 100 μM in HLMs and RLMs) corresponded to CYP2D6/CYP2D. After 5.0 min of preincubation in the shaking water bath, the reaction was started with the addition of 1.0 mM NADPH. The incubated temperature at 37°C for 30 min. After the incubation, the enzyme reaction was stopped by cooling at −80°C, and 200 μL of acetonitrile and 20 μL of internal standard diazepam (200 ng/mL) were added for protein precipitation. The solution was fully vortexed and centrifuged at 13,000 × rpm for 10 min, and the supernatant was collected for data analysis by UPLC-MS/MS.
# (§2) The inhibitory mechanism of the inhibitor on the enzyme was generally used by different concentrations of the inhibitor against different concentrations of the probe substrate. The concentrations of the inhibitor and the concentrations of probe substrates in the experiment were estimated based on IC50 and Km values, respectively.
# (§3) In RLMs, the concentrations of the substrates midazolam and dextromethorphan were 0.8, 1.6, 3.5, 7 μM and 5, 10, 20, 40 μM, respectively, vortioxetine concentrations were 4, 8, 16, 32 μM. The concentrations of mephenytoin and amodiaquine were 100, 200, 400, 800 μM and 5, 10, 20, 40 μM, respectively, vortioxetine concentrations were 5, 10, 20, 40 μM. The losartan concentrations were 4, 8, 15, 30 μM, corresponding to vortioxetine concentrations of 0.08, 0.15, 0.3, 0.6 μM. […]
# (§4) All experiments results were detected by UPLC-MS/MS, which equipped with a Waters Acquity UPLC system (Milford, MA, United States) and a Waters Xevo TQ-S triple quadrupole tandem mass spectrometer with an electrospray ionization source (Milford, MA, United States). […]
# (§5) IC50 values and enzyme kinetic parameters were calculated by Graphpad Prism 6.0 (GraphPad software Inc., CA, United States). […] Data for each experiment were expressed as mean ± SD (n = 3).
# CYP2C-3 = assay: Reversible inhibition kinetics (Lineweaver-Burk), CYP2C-3 in RLMs; type: in vitro ADME, rat
# Protocol: as §1, §2, §3, §4, §5
# CYP2C8 = biological target: T1, CYP2C8 (Homo sapiens, UniProt P10632); assay: IC50 of vortioxetine on CYP2C8 (amodiaquine) in HLMs; type: in vitro ADME; parameters: 0.20 mg/mL HLMs; from tissue; host or cells: human liver microsomes
# T1 sequence (P10632 1-490): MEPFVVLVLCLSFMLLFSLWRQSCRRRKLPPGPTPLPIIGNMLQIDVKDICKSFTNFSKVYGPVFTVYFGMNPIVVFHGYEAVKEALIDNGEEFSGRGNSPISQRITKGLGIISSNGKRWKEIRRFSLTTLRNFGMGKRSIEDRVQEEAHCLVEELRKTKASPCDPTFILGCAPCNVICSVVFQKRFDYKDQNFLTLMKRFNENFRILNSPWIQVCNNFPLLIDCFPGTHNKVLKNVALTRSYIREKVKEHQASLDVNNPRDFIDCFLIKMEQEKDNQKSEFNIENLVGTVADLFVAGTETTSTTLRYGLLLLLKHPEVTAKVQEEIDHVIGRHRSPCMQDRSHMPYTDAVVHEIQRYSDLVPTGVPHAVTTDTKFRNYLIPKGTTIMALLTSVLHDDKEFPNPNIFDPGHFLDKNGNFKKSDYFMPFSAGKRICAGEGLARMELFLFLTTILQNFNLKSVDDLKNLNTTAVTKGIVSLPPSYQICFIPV
# Protocol: as §1, with “After 5.0 min of preincubation in the shaking water bath, the reaction was started with the addition of 1.0 mM NADPH. The incubated temperature at 37°C for 30 min. After the incubation, the enzyme reaction was stopped by cooling at −80°C, and 200 μL of acetonitrile and 20 μL of internal standard diazepam (200 ng/mL) were added for protein precipitation. The solution was fully vortexed and centrifuged at 13,000 × rpm for 10 min, and the supernatant was collected for data analysis by UPLC-MS/MS.” left out
# as §4, §5
# [1] = parameters: method as in Chen et al., 2018; details: single oral dose of 10 mg; 14 healthy subjects; ref Chen et al., 2018; cited from earlier work
compound,measurement,setting,value
Cc1ccc(Sc2ccccc2N2CCNCC2)c(C)c1 [vortioxetine],α,CYP2C-1; amodiaquine,1.42
same,Inhibition type,"CYP2C-1; amodiaquine, Lineweaver-Burk plot",mixed inhibition
same,αKi,"CYP2C-1; amodiaquine, secondary plot of y-intercepts",56.73 µM
same,Ki at 30 min,"CYP2C-1; rat, rat liver microsomes, probe amodiaquine",39.9 µM
same,α,CYP2C-3; mephenytoin,2.97
same,Inhibition type,"CYP2C-3; mephenytoin, Lineweaver-Burk plot",noncompetitive inhibition
same,αKi,"CYP2C-3; mephenytoin, secondary plot of y-intercepts",12.54 µM
same,Ki at 30 min,"CYP2C-3; rat, rat liver microsomes, probe mephenytoin",4.23 µM
same,IC50,"CYP2C8; HLMs 0.20 mg/mL, amodiaquine at Km, 37°C, 30 min, read-out: IC50",15 µM
same,IC50,"CYP2C8; inhibitory effect (strength judged by IC50), HLMs",> 10 µM
same,AUC(0-t),[1],254.72 ngh/mL
same,Cmax,[1],4.60 ng/mL

# Source: article PMC10544575, “Inhibitory mechanism of vortioxetine on CYP450 enzymes in human and rat liver microsomes” (Frontiers in Pharmacology, 2023)
